The values that follow come from ChEMBL document CHEMBL6083220, “Chemically induced degradation of PRC2 complex by EZH2-Targeted PROTACs via a Ubiquitin-Proteasome pathway” (Bioorg Med Chem Lett, 2024).

The source made the active and inactive calls. The calls are words filed in the database; no cut-off is given here.

A short description of test [1]: Antiproliferative activity against human MINO cells by MTT assay. In kind it is functional, cell-based.
For test [2], the system named is OCI-Ly7. The test can be described thus: Antiproliferative activity against human OCILY7 cells by MTT assay. In kind it is functional, cell-based. On the technique in general: Tetrazolium assays rely on reduction of a dye to a coloured formazan, in cell work by metabolically active cells.
Test [3] can be described thus: Induction of cell cycle arrest in human MINO cells assessed as G2/M phase cells at 5 uM incubated for 24 hrs by propidium iodide staining based flow cytometry assay (reference value: 7.26%). The test is classed as functional. For orientation: Flow cytometry measures light scatter and fluorescence of single cells or particles in a stream.
The nature of test [4]: Induction of cell cycle arrest in human MINO cells assessed as S phase cells at 5 uM incubated for 24 hrs by propidium iodide staining based flow cytometry assay (reference value: 25.19%). The test is classed as functional.
The subject of test [5] is MINO. Briefly: Downregulation of SUZ12 protein expression in human MINO cells at 5 uM incubated for 24 hrs by Western blotting assay. In kind it is functional, cell-based. (In general: Immunoblotting shows a protein as a band on a membrane.)
Test [6] deals with MINO. The test can be described thus: Downregulation of EZH2 protein expression in human MINO cells at 5 uM incubated for 24 hrs by Western blotting assay. The test is classed as functional, cell-based.
In test [7] the test system is MINO. The test can be described thus: Downregulation of EED protein expression in human MINO cells at 5 uM incubated for 24 hrs by Western blotting assay. In kind it is functional, cell-based.
In test [8] the test system is MINO. The test can be described thus: Induction of mitochondrial apoptosis pathway in human MINO cells assessed as upregulation of cytochrome C expression at 5 uM incubated for 24 hrs by Western blotting assay. In kind it is functional, cell-based.
Test [9] has as its system MINO. The test can be described thus: Induction of mitochondrial apoptosis pathway in human MINO cells assessed as upregulation of bax protein expression at 5 uM incubated for 24 hrs by Western blotting assay. The test is classed as functional, cell-based.
In test [10] the test system is MINO. The test can be described thus: Downregulation of H3k27me3 protein expression in human MINO cells at 5 uM incubated for 24 hrs by Western blotting assay. The test is classed as functional, cell-based.
Test [11] can be described thus: Induction of cell cycle arrest in human MINO cells assessed as G0/G1 phase cells at 5 uM incubated for 24 hrs by propidium iodide staining based flow cytometry assay (reference value: 67.56%). In kind it is functional.
Test [12] has as its system MINO. The test can be described thus: Induction of mitochondrial apoptosis pathway in human MINO cells assessed as downregulation of procaspase-3 expression at 5 uM incubated for 24 hrs by Western blotting assay. In kind it is functional, cell-based.
Test [13] can be described thus: Induction of apoptosis in human MINO cells assessed as late apoptotic cells at 5 uM incubated for 24 hrs by Annexin V-FITC/PI staining based flow cytometry assay (reference value: 8.29%). The test is classed as functional.
Test [14] has as its system MINO. Briefly: Induction of mitochondrial apoptosis pathway in human MINO cells assessed as upregulation of cleaved PARP expression at 5 uM incubated for 24 hrs by Western blotting assay. The test is classed as functional, cell-based.
Test [15] can be described thus: Induction of apoptosis in human MINO cells assessed as early apoptotic cells at 5 uM incubated for 24 hrs by Annexin V-FITC/PI staining based flow cytometry assay (reference value: 1.04%). The test is classed as functional.
Test [16] in a line: Induction of apoptosis in human MINO cells assessed as viable cells at 5 uM incubated for 24 hrs by Annexin V-FITC/PI staining based flow cytometry assay (reference value: 89.93%). In kind it is functional. To be noted: read-out: Activity.
The subject of test [17] is MINO. The test can be described thus: Downregulation of RbAp48 protein expression in human MINO cells at 5 uM incubated for 24 hrs by Western blotting assay. The test is classed as functional, cell-based.
For test [18], the system named is MINO. The test can be described thus: Induction of mitochondrial apoptosis pathway in human MINO cells assessed as downregulation of procaspase-9 expression at 5 uM incubated for 24 hrs by Western blotting assay. In kind it is functional, cell-based.
For test [19], the system named is MINO. The test can be described thus: Induction of mitochondrial apoptosis pathway in human MINO cells assessed as downregulation of bcl-2 expression at 5 uM incubated for 24 hrs by Western blotting assay. The test is classed as functional, cell-based.
The nature of test [20]: Induction of apoptosis in human MINO cells assessed as necrotic cells at 5 uM incubated for 24 hrs by Annexin V-FITC/PI staining based flow cytometry assay (reference value: 0.74%). In kind it is functional.

In general, IC50 refers to the concentration that inhibits the measured activity by half. Turning to `CCN(c1cc(-c2ccc(CN3CCN(CC=C4CCC(CNc5cccc6c5C(=O)N(C5CCC(=O)NC5=O)C6=O)CC4)CC3)cc2)cc(C(=O)NCc2c(C)cc(C)[nH]c2=O)c1C)C1CCOCC1` (configuration not stated), the half-inhibitory concentration (IC50) in test [1] stood at 250 nM; in test [2] it was 4 nM.

For the compound `CCN(c1cc(-c2ccc(CN3CCN(CCCN4CC(CNc5cccc6c5C(=O)N(C5CCC(=O)NC5=O)C6=O)C4)CC3)cc2)cc(C(=O)NCc2c(C)cc(C)[nH]c2=O)c1C)C1CCOCC1` (configuration not stated), the IC50 in test [1] was determined as 69 nM; in test [2], 22 nM.

On to `CCN(c1cc(-c2ccc(CN3CCN(C(=O)/C=C/C4CCC(CNc5cccc6c5C(=O)N(C5CCC(=O)NC5=O)C6=O)C4)CC3)cc2)cc(C(=O)NCc2c(C)cc(C)[nH]c2=O)c1C)C1CCOCC1` (configuration not stated), for which the IC50 was determined as 57 nM in [1] and 7 nM in [2].

Turning to `CCN(c1cc(-c2ccc(CN3CCN(C(=O)/C=C/C4CCC(CNc5cccc6c5C(=O)N(C5CCC(=O)NC5=O)C6=O)CC4)CC3)cc2)cc(C(=O)NCc2c(C)cc(C)[nH]c2=O)c1C)C1CCOCC1` (configuration not stated), the concentration for half-maximal inhibition (IC50) in test [1] was 24 nM; in test [2], 40 nM.

For `CCN(c1cc(-c2ccc(CN3CCN(C(=O)CCN4CC(CNc5cccc6c5C(=O)N(C5CCC(=O)NC5=O)C6=O)C4)CC3)cc2)cc(C(=O)NCc2c(C)cc(C)[nH]c2=O)c1C)C1CCOCC1` (configuration not stated), the values for the IC50 in test [1] and in test [2] were 510 nM and 170 nM, respectively.

Take `CCN(c1cc(-c2ccc(CN3CCN(C(=O)CCC4CCC(CNc5cccc6c5C(=O)N(C5CCC(=O)NC5=O)C6=O)CC4)CC3)cc2)cc(C(=O)NCc2c(C)cc(C)[nH]c2=O)c1C)C1CCOCC1` (configuration not stated): the figures for the concentration for half-maximal inhibition (IC50) in test [1] and in test [2] were 39 nM and 37 nM, respectively.

Turning to `CCN(c1cc(-c2ccc(CN3CCN(C(=O)CCC4CCC(CNc5cccc6c5C(=O)N(C5CCC(=O)NC5=O)C6=O)C4)CC3)cc2)cc(C(=O)NCc2c(C)cc(C)[nH]c2=O)c1C)C1CCOCC1` (configuration not stated), the IC50 in test [1] came out at 30 nM; in test [2], 20 nM.

Turning to `CCN(c1cc(-c2ccc(CN3CCN(C(=O)CCC4CC(CNc5cccc6c5C(=O)N(C5CCC(=O)NC5=O)C6=O)C4)CC3)cc2)cc(C(=O)NCc2c(C)cc(C)[nH]c2=O)c1C)C1CCOCC1` (configuration not stated), the IC50 in test [1] is 48 nM; in test [2] it was 10 nM.

As to `CCN(c1cc(-c2ccc(CN3CCN(C(=O)/C=C/C4CC(CNc5cccc6c5C(=O)N(C5CCC(=O)NC5=O)C6=O)C4)CC3)cc2)cc(C(=O)NCc2c(C)cc(C)[nH]c2=O)c1C)C1CCOCC1` (configuration not stated), the 50% inhibitory concentration (IC50) was determined as 190 nM in test [1] and 6 nM in test [2].

`CCN(c1cc(-c2ccc(CN3CCN(C(=O)Cc4ccc(CNc5cccc6c5C(=O)N(C5CCC(=O)NC5=O)C6=O)cc4)CC3)cc2)cc(C(=O)NCc2c(C)cc(C)[nH]c2=O)c1C)C1CCOCC1` (configuration not stated): the IC50 in test [1] worked out at 1030 nM; in test [2] it was 870 nM.

As to `CCN(c1cc(-c2ccc(CN3CCN(C(=O)CN4CCN(c5cccc6c5C(=O)N(C5CCC(=O)NC5=O)C6=O)CC4)CC3)cc2)cc(C(=O)NCc2c(C)cc(C)[nH]c2=O)c1C)C1CCOCC1` (configuration not stated), the IC50 in [1] stood at 110 nM; in [2] it was 2350 nM.

Regarding `CCN(c1cc(-c2ccc(CN3CCN(C(=O)CN4CCCC(CNc5cccc6c5C(=O)N(C5CCC(=O)NC5=O)C6=O)C4)CC3)cc2)cc(C(=O)NCc2c(C)cc(C)[nH]c2=O)c1C)C1CCOCC1` (configuration not stated), the half-maximal inhibitory concentration (IC50) in test [1] stood at 450 nM; in [2] it was 220 nM.

Regarding `CCN(c1cc(-c2ccc(CN3CCN(C(=O)C4CCC(CNc5cccc6c5C(=O)N(C5CCC(=O)NC5=O)C6=O)CC4)CC3)cc2)cc(C(=O)NCc2c(C)cc(C)[nH]c2=O)c1C)C1CCOCC1` (configuration not stated), the IC50 amounted to 34 nM in test [1] and 18 nM in test [2].

On to `CCN(c1cc(-c2ccc(CN3CCN(CCC4CCC(CNc5cccc6c5C(=O)N(C5CCC(=O)NC5=O)C6=O)CC4)CC3)cc2)cc(C(=O)NCc2c(C)cc(C)[nH]c2=O)c1C)C1CCOCC1` (configuration not stated), for which the IC50 in test [1] came out at 40 nM; in test [2] it was 13 nM.

Regarding `CCN(c1cc(-c2ccc(CN3CCN(C(=O)C4CCN(C5CN(c6cccc7c6C(=O)N(C6CCC(=O)NC6=O)C7=O)C5)CC4)CC3)cc2)cc(C(=O)NCc2c(C)cc(C)[nH]c2=O)c1C)C1CCOCC1` (configuration not stated), the half-maximal inhibitory concentration (IC50) in test [1] was 2470 nM; in test [2], 10400 nM.

Regarding `CCN(c1cc(-c2ccc(CN3CCN(C(=O)CN4CCC(Nc5cccc6c5C(=O)N(C5CCC(=O)NC5=O)C6=O)C4)CC3)cc2)cc(C(=O)NCc2c(C)cc(C)[nH]c2=O)c1C)C1CCOCC1` (configuration not stated), the IC50 in [1] came out at 660 nM; in [2] it was 150 nM.

On to `CCN(c1cc(-c2ccc(CN3CCN(C(=O)C4CCN(C5CCN(c6cccc7c6C(=O)N(C6CCC(=O)NC6=O)C7=O)CC5)CC4)CC3)cc2)cc(C(=O)NCc2c(C)cc(C)[nH]c2=O)c1C)C1CCOCC1` (configuration not stated), for which the results for the IC50 in [1] and in test [2] were 980 nM and 4050 nM, respectively.

With `CCN(c1cc(-c2ccc(CN3CCN(C(=O)C=C4CCC(CNc5cccc6c5C(=O)N(C5CCC(=O)NC5=O)C6=O)CC4)CC3)cc2)cc(C(=O)NCc2c(C)cc(C)[nH]c2=O)c1C)C1CCOCC1` (configuration not stated), the IC50 in test [1] was found to be 690 nM; in test [2], 190 nM.

Turning to `CCN(c1cc(-c2ccc(CN3CCOCC3)cc2)cc(C(=O)NCc2c(C)cc(C)[nH]c2=O)c1C)C1CCOCC1` [TAZEMETOSTAT], the Activity in test [3] was 7.74%; in test [4] it was 18.34%; in test [8] it was “Active; Activity Weaker Than Zj-20”; in test [9], “Active; Activity Weaker Than Zj-20”; in test [10], “Active; Limited Inhibition Observed”; in test [11], 73.92%. For the same compound, the Activity result in test [12] was “Active; Activity Weaker Than Zj-20”; in [13] it was 32.16%; in [14] it was “Active; Activity Weaker Than Zj-20”; in [15] it was 0.38%; in [18], “Active; Activity Weaker Than Zj-20”; in test [19] it was “Active; Activity Weaker Than Zj-20”. Moreover, the Activity in test [20] came out at 10.27%. The outcome in test [5], in test [6], in [7] and in test [17] was inactive. Moreover, the half-inhibitory concentration (IC50) was 1070 nM in [1] and 1190 nM in [2]. Besides, in test [16], the viability at 5 µM came to 57.2%.

Turning to `CCN(c1cc(-c2ccc(CN3CCN(C(=O)CN4CCC(Nc5cccc6c5C(=O)N(C5CCC(=O)NC5=O)C6=O)CC4)CC3)cc2)cc(C(=O)NCc2c(C)cc(C)[nH]c2=O)c1C)C1CCOCC1` (configuration not stated), the IC50 is 530 nM in [1] and 22 nM in test [2].

Turning to `CCN(c1cc(-c2ccc(CN3CCN(C(=O)CN4CCC(CNc5cccc6c5C(=O)N(C5CCC(=O)NC5=O)C6=O)C4)CC3)cc2)cc(C(=O)NCc2c(C)cc(C)[nH]c2=O)c1C)C1CCOCC1` (configuration not stated), the IC50 worked out at 3210 nM in test [1] and 2130 nM in test [2].

As for `CCN(c1cc(-c2ccc(CN3CCN(C(=O)CN4CC(CNc5cccc6c5C(=O)N(C5CCC(=O)NC5=O)C6=O)C4)CC3)cc2)cc(C(=O)NCc2c(C)cc(C)[nH]c2=O)c1C)C1CCOCC1` (configuration not stated), the half-inhibitory concentration (IC50) in [1] came to 950 nM; in test [2] it was 1970 nM.
